# According to ChEMBL document CHEMBL6092168, “Identification of novel indolinone derivatives as CTSC inhibitors to treat inflammatory bowel disease by modulating inflammatory factors” (Eur J Med Chem, 2024):
# Activity calls are given as the source filed them. The calls are words filed in the database; no cut-off is given here.
# Assays:
# RAW264.7 [1] = assay: Anti-inflammatory activity in mouse RAW264.7 cells assessed as inhibition of LPS-induced NO production preincubated for 1 hr followed by LPS addition and measured after 24 hrs by Griess reagent based assay; assay type: functional, cell-based
# RAW264.7 [2] = assay: Anti-inflammatory activity in mouse RAW264.7 cells assessed as inhibition of LPS-induced IL-1beta production at 5 uM preincubated for 1 hr followed by LPS addition and measured after 24 hrs by ELISA relative to control; assay type: functional
# RAW264.7 [3] = assay: Anti-inflammatory activity in mouse RAW264.7 cells assessed as inhibition of LPS-induced TNF-alpha production at 5 uM preincubated for 1 hr followed by LPS addition and measured after 24 hrs by ELISA relative to control; assay type: functional
# Dipeptidyl peptidase 1 = Dipeptidyl peptidase 1 (Homo sapiens, UniProt P53634); assay: Inhibition of human recombinant Cathepsin C using Gly-Phe-AFC as substrate preincubated for 3 hrs followed by substrate addition and measured after 1 hr by fluorescence based multifunctional microplate reader analysis
# Chain of Dipeptidyl peptidase 1 (P53634 25-134 limits assumed): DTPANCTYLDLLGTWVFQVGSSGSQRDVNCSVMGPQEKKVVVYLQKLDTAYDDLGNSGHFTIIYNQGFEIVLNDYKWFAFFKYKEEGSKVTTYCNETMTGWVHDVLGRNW
# Chain of Dipeptidyl peptidase 1 (P53634 231-394 limits assumed): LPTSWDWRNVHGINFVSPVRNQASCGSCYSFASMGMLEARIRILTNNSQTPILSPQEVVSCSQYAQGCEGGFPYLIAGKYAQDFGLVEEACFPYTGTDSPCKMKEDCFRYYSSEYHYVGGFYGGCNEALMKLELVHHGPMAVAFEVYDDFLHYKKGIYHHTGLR
# Chain of Dipeptidyl peptidase 1 (P53634 395-463 limits assumed): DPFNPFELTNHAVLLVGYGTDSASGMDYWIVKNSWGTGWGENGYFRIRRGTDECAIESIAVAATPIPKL
SMILES,IC50 (RAW264.7 [1]) [nM],Activity (RAW264.7 [2]; time 25.0 hrs),Activity (RAW264.7 [3]; time 25.0 hrs),IC50 (Dipeptidyl peptidase 1) [nM],Activity (RAW264.7 [2]; time 25 hrs) [%],Activity (RAW264.7 [3]; time 25 hrs) [%]
Nc1ccccc1NC(=O)c1cccc(-c2ccc(CN3CCOCC3)cc2)c1,> 50000,inactive,inactive,> 1000,–,–
O=C1Nc2c(cccc2-c2ccc(N3CCOCC3)cc2)/C1=C/c1ccnc2ccccc12,11300,inactive,inactive,537,–,–
Cc1cccc(NC(=O)c2cccc(-c3ccc(CN4CCOCC4)cc3)c2)c1,> 50000,inactive,inactive,> 1000,–,–
CC(=O)Nc1cccc(NC(=O)c2cccc(-c3ccc(CN4CCOCC4)cc3)c2)c1,> 50000,inactive,inactive,> 1000,–,–
Cc1ccc(-c2cccc3c2NC(=O)/C3=C\c2ccnc3ccccc23)cc1,18700,inactive,inactive,> 1000,–,–
O=C(Nc1ccc2ccccc2c1)c1cccc(-c2ccc(CN3CCOCC3)cc2)c1,7600,–,–,223,68.8,63.2
CNC(=O)c1ccccc1NC(=O)c1cccc(-c2ccc(CN3CCOCC3)cc2)c1,> 50000,inactive,inactive,> 1000,–,–
CC(C)c1cccc(NC(=O)c2cccc(-c3ccc(CN4CCOCC4)cc3)c2)c1,> 50000,inactive,inactive,> 1000,–,–
Nc1cccc(NC(=O)c2cccc(-c3ccc(CN4CCOCC4)cc3)c2)c1,> 50000,inactive,inactive,> 1000,–,–
NC(=O)c1cccc(NC(=O)c2cccc(-c3ccc(CN4CCOCC4)cc3)c2)c1,16100,–,–,360,35.6,41.9
CC(=O)Nc1ccccc1NC(=O)c1cccc(-c2ccc(CN3CCOCC3)cc2)c1,> 50000,inactive,inactive,900,–,–
Nc1c(C(=O)Nc2cncc3ccccc23)cccc1-c1ccc(CN2CCOCC2)cc1,5300,–,–,222,62.3,60.8
CNC(=O)c1cccc(NC(=O)c2cccc(-c3ccc(CN4CCOCC4)cc3)c2)c1,> 50000,inactive,inactive,> 1000,–,–
O=C1Nc2c(cccc2-c2ccccc2)/C1=C/c1ccnc2ccccc12,> 50000,inactive,inactive,> 1000,–,–
O=C(Nc1ccc(F)cc1)c1cccc(-c2ccc(CN3CCOCC3)cc2)c1,> 50000,inactive,inactive,> 1000,–,–
O=C1Nc2c(cccc2-c2ccc3cc[nH]c3c2)/C1=C/c1ccnc2ccccc12,9800,–,–,–,60.2,39.4
COc1ccc(NC(=O)c2cccc(-c3ccc(CN4CCOCC4)cc3)c2)cc1,> 50000,inactive,inactive,731,–,–
CC(C)c1ccc(NC(=O)c2cccc(-c3ccc(CN4CCOCC4)cc3)c2)cc1,> 50000,inactive,inactive,> 1000,–,–
NCc1ccc(-c2cccc3c2NC(=O)/C3=C\c2ccnc3ccccc23)cc1,14500,inactive,inactive,–,–,–
COc1ccc(-c2cccc3c2NC(=O)/C3=C\c2ccnc3ccccc23)cc1,> 50000,inactive,inactive,> 1000,–,–
O=C1Nc2c(cccc2-c2ccc3[nH]ncc3c2)/C1=C/c1ccnc2ccccc12,9800,–,–,190,62,41.3
O=C1Nc2c(cccc2-c2ccc(Cl)cc2)/C1=C/c1ccnc2ccccc12,> 50000,inactive,inactive,> 1000,–,–
O=C(Nc1ccc(Cl)cc1)c1cccc(-c2ccc(CN3CCOCC3)cc2)c1,> 50000,inactive,inactive,575,–,–
CC(C)c1ccccc1NC(=O)c1cccc(-c2ccc(CN3CCOCC3)cc2)c1,> 50000,inactive,inactive,> 1000,–,–
Nc1c(C(=O)Nc2nccc3ccccc23)cccc1-c1ccc(CN2CCOCC2)cc1,8300,–,–,324,44.2,33.3
CCc1ccc(-c2cccc3c2NC(=O)/C3=C\c2ccnc3ccccc23)cc1,> 50000,inactive,inactive,> 1000,–,–

SMILES,IC50 (RAW264.7 [1]) [nM],Activity (RAW264.7 [2]; time 25.0 hrs),Activity (RAW264.7 [3]; time 25.0 hrs),IC50 (Dipeptidyl peptidase 1) [nM],Activity (RAW264.7 [2]; time 25 hrs) [%],Activity (RAW264.7 [3]; time 25 hrs) [%]
O=C(Nc1ccc(C(F)(F)F)cc1)c1cccc(-c2ccc(CN3CCOCC3)cc2)c1,> 50000,inactive,inactive,> 1000,–,–
O=C(Nc1cccc(F)c1)c1cccc(-c2ccc(CN3CCOCC3)cc2)c1,> 50000,inactive,inactive,> 1000,–,–
O=C1Nc2c(cccc2-c2ccc(OC(F)(F)F)cc2)/C1=C/c1ccnc2ccccc12,> 50000,inactive,inactive,> 1000,–,–
O=C(Nc1ccccc1F)c1cccc(-c2ccc(CN3CCOCC3)cc2)c1,> 50000,inactive,inactive,> 1000,–,–
O=C(Nc1cccc2ccccc12)c1cccc(-c2ccc(CN3CCOCC3)cc2)n1,10000,–,–,253,68.5,59.6
O=C(Nc1ccc2ccccc2c1)c1cccc(-c2ccc(CN3CCOCC3)cc2)n1,2900,–,–,302,69.3,57.4
N#Cc1ccc(-c2cccc3c2NC(=O)/C3=C\c2ccnc3ccccc23)cc1,> 50000,inactive,inactive,> 1000,–,–
Cc1ccc(NC(=O)c2cccc(-c3ccc(CN4CCOCC4)cc3)c2)cc1,> 50000,inactive,inactive,> 1000,–,–
O=C1Nc2c(cccc2-c2ccc(CN3CCNCC3)cc2)/C1=C/c1ccnc2ccccc12,5100,–,–,128,82.5,68.7
Nc1c(C(=O)Nc2cccc3ccccc23)cccc1-c1ccc(CN2CCOCC2)cc1,8400,–,–,272,67.1,40.1
CN(C)Cc1ccc(-c2cccc3c2NC(=O)/C3=C\c2ccnc3ccccc23)cc1,14500,inactive,inactive,660,–,–
O=C(Nc1ccc(O)cc1)c1cccc(-c2ccc(CN3CCOCC3)cc2)c1,15700,–,–,237,38.6,40.8
CNC(=O)c1ccc(NC(=O)c2cccc(-c3ccc(CN4CCOCC4)cc3)c2)cc1,> 50000,inactive,inactive,> 1000,–,–
CC(=O)c1cccc(NC(=O)c2cccc(-c3ccc(CN4CCOCC4)cc3)c2)c1,20200,–,–,292,47.4,50.3
O=C1Nc2c(cccc2-c2ccc(CN3CCOCC3)cc2)/C1=C/c1ccnc2ccccc12,4400,–,–,106,88.3,72.2
O=C(Nc1cccc2ccccc12)c1cccc(-c2ccc(CN3CCOCC3)cc2)c1,8200,–,–,263,63.2,54.3
O=C(Nc1nccc2ccccc12)c1cccc(-c2ccc(CN3CCOCC3)cc2)n1,> 50000,inactive,inactive,244,–,–
COc1cccc(NC(=O)c2cccc(-c3ccc(CN4CCOCC4)cc3)c2)c1,> 50000,–,–,486,25.5,20.4
O=C1Nc2c(cccc2-c2ccc3[nH]ccc3c2)/C1=C/c1ccnc2ccccc12,6800,–,–,195,63.5,43.2
CCc1ccc(NC(=O)c2cccc(-c3ccc(CN4CCOCC4)cc3)c2)cc1,> 50000,inactive,inactive,> 1000,–,–
O=C(Nc1ccnc2ccccc12)c1cccc(-c2ccc(CN3CCOCC3)cc2)c1,9400,–,–,240,75.7,70.6
O=C(Nc1cccc(Cl)c1)c1cccc(-c2ccc(CN3CCOCC3)cc2)c1,> 50000,–,–,377,40.2,35.5
CC(C)c1ccc(-c2cccc3c2NC(=O)/C3=C\c2ccnc3ccccc23)cc1,> 50000,inactive,inactive,> 1000,–,–
Nc1n[nH]c2ccc(-c3cccc4c3NC(=O)/C4=C\c3ccnc4ccccc34)cc12,15600,–,–,398,59.3,37.8
Cc1ccccc1NC(=O)c1cccc(-c2ccc(CN3CCOCC3)cc2)c1,> 50000,inactive,inactive,> 1000,–,–
O=C1Nc2c(cccc2-c2ccc(C(=O)NC3CCOCC3)cc2)/C1=C/c1ccnc2ccccc12,6800,–,–,–,88.1,71.9
